Molecules are shown by their SMILES. Activity calls are given as the source filed them.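 The calls were made as follows: active = fitted half-maximal concentration below 30 µM for cell fluorescence in pump-free yeast, so likely self-fluorescent; inactive = the rest.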

This experiment can be described thus: concentration-dependent intrinsic compound fluorescence, S. cerevisiae AD/pABC3, flow cytometry, Cherry Pick1 hits, artefact control for antifungal efflux pump inhibitor project, dose response (AID 588620).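 Also: red emission of unstained cells excited at 488 nm measured in PE-Texas Red channel; cell median fluorescence as percent of DMSO wells so 100% equals vehicle baseline.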 The note with it: S. cerevisiae AD/pABC3 compound autofluorescence, flow cytometry; at 33.1 µM (top of the series). (In general: In flow cytometry, cells or beads pass a laser one at a time.)
With `C[C@@H]1CN(C(=O)c2cc(COc3cccc(C(F)(F)F)c3)on2)C[C@H](C)O1`, the fluorescence response, % of control is 97.1% (inactive).

Turning to `C[C@@]12C(=O)Nc3ccc(F)cc3C(=O)N1[C@H]1c3cc(Cl)ccc3OC[C@@H]1[C@@H]2c1ccccc1`, the fluorescence response, % of control is 104% (inactive).

`COc1ccc(C(=O)NC2CCCc3c2cnn3-c2cccc(C)c2C)c(OC)n1` (centres undefined): the fluorescence response, % of control is 75.9% (inactive). As for `O=C(O)C(c1ccccc1)N1C(=O)/C(=C\c2ccc(O)c(O)c2)SC1=S` (centres undefined), the fluorescence response, % of control was 226% (inactive). Then `NC1=NC[C@H](Cc2ccc(O)cc2)N1CCc1cc(C(F)(F)F)cc(C(F)(F)F)c1`, with 83.1% (inactive).

`O=c1[nH]c(=S)[nH]c(O)c1/C=C1/C=c2ccccc2=N1`: the fluorescence response, % of control is 114% (inactive). In the case of `COc1ccc(CC(=O)Nc2ccc(NC(=O)c3ccc(Br)cc3)cc2)cc1OC` it was 134% (inactive); in that of `CC(C)C(=O)N1CCC2(CC1)Oc1ccc(F)cc1C(=O)C21CC(c2ccccc2)=NO1` (centres undefined), 115% (inactive). In the case of `CCC(=O)N1CCN(c2ccc(Cl)cc2NC(=O)c2ccc3c(c2)OCCO3)CC1` it was 99.8% (inactive); in that of `Cc1ccc(C)c(Cn2nnc3c(=O)[nH]c(C4CCN(S(=O)(=O)c5ccc(S(=O)(=O)N(C)C)cc5)CC4)nc32)c1`, 119% (inactive). Then `COc1ccc2cc(C#N)c(N3CCN(Cc4nnnn4CCC(C)C)CC3)nc2c1`, with 113% (inactive); and `Cc1cc(O)c(C(C)C)cc1C1(c2cc(C(C)C)c(O)cc2C)OC(=O)c2ccccc21`, with 99.8% (inactive); and `CCOC(=O)CC(=O)c1cc(OC)c(OC)c(OC)c1`, with 96.1% (inactive). As for `Cc1ccc(-n2c(-c3ccc(Br)cc3)c[n+]3c2CCc2ccc4cccnc4c2-3)cc1`, the fluorescence response, % of control is 92.4% (inactive). In the case of `COc1ccc(CNC(=O)C(C)n2nc(C)c3c(C)n(-c4ccc(C)cc4)nc3c2=O)cc1` (centres undefined) it was 77.9% (inactive); in that of `COc1ccc(-c2sc3cc4c(cc3c2-c2ccc(OCCN3CCCCC3)cc2)OCO4)cc1`, 91.7% (inactive); in that of `O=C(NC1CCCc2c1cnn2-c1ccccc1F)c1ccccn1` (centres undefined), 81.2% (inactive). As to `COC(=O)c1ccc(CSc2nnc3c(n2)[nH]c2ccccc23)cc1`, the fluorescence response, % of control was 139% (inactive). As to `c1ccc2c(c1)Cc1cc(CN3CCOCC3)ccc1-2`, the fluorescence response, % of control was 109% (inactive). Then `COc1ccc(/C=C/C(=O)Nc2cccc(S(=O)(=O)N3CCCC3)c2)cc1OC`, with 103% (inactive). As to `CCCCCc1cc(=O)oc2c(C(CCN3CCCC(C)C3)c3ccc(N(C)C)cc3)c(OC)cc(OC)c12` (centres undefined), the fluorescence response, % of control was 94.5% (inactive). In the case of `NC1=NC[C@H](Cc2ccc(O)cc2)N1CCCCC1CCCCC1` it was 92.2% (inactive); in that of `O=C(Nc1ccnc(-c2cccnc2)n1)c1cccc(Cl)c1Cl`, 104% (inactive).

For the molecule `NC1=NC[C@@H](Cc2ccc(O)cc2)N1CCCCC1CCCCC1`, the fluorescence response, % of control is 93.4% (inactive). In the case of `COc1ccccc1-c1sc2ccccc2c1-c1ccc(OCCN2CCOCC2)cc1` it was 99.3% (inactive); in that of `CCOc1ccc(OCC)c(NS(=O)(=O)c2ccc3c(c2)CCN3C(=O)C2CCC2)c1`, 80.8% (inactive); in that of `CCn1ncc(Br)c1C(=O)Nc1sc2c(c1C(=O)OC)CCC2`, 117% (inactive). Then `CCSc1cc(N2CCCC2)nc(-c2ccc(C)cc2)n1`, with 101% (inactive); and `O=C(CSc1nnc(-c2cccnc2)n1Cc1ccco1)c1ccc(Cl)c(Cl)c1`, with 81.2% (inactive); and `Cc1ccc(Cn2nnc3c(=O)[nH]c(C4CCN(S(=O)(=O)c5ccccc5)CC4)nc32)cc1`, with 87.4% (inactive). Take `O=C(c1cc(COc2cccc(C(F)(F)F)c2)on1)N1CCC(c2ccncc2)CC1`: the fluorescence response, % of control was 109% (inactive). As for `COc1ccccc1-c1sc2ccccc2c1-c1ccc(OCCN2CCCCC2)cc1`, the fluorescence response, % of control is 102% (inactive). Regarding `CC(CCc1ccccc1)NC(=O)c1ccc(NC(=O)c2cccc(Br)c2)cc1` (centres undefined), the fluorescence response, % of control was 88.6% (inactive). With `CCN1CCN(c2cc(SC(C)C)nc(-c3ccc(OC)cc3)n2)CC1`, the fluorescence response, % of control is 109% (inactive). In the case of `COc1ccc(/C=C2\SC(c3ccc(C)cc3)=NC2=O)cc1OC` it was 289% (inactive); in that of `CCOC(=O)C(NC(=O)CC)(Nc1ccccc1)C(F)(F)F` (centres undefined), 103% (inactive).

`CCc1ccc(C2=NN(S(C)(=O)=O)C(c3cccs3)C2)cc1` (centres undefined): the fluorescence response, % of control is 113% (inactive).

For `Cc1ccc(-n2c(=O)[nH]c3c(C(N)=O)nc(-c4ccc(C)o4)nc32)cc1`, the fluorescence response, % of control is 99.1% (inactive). With `O=C(O)c1ccc(-c2ccc(/C=c3/sc4nc5ccccc5n4c3=O)o2)cc1Cl`, the fluorescence response, % of control was 365% (inactive). In the case of `O=C(/C=C/c1ccccc1[N+](=O)[O-])NCCc1ccc(F)cc1` it was 90.8% (inactive); in that of `COc1ccc2nccc(/C=C/c3ccnc4ccc(OC)cc34)c2c1`, 126% (inactive); in that of `COc1cc(OC)cc(-c2sc3ccc(OC)cc3c2-c2ccc(OCCN3CCCCC3)cc2)c1`, 122% (inactive). On to `COCC1CCN(C(=O)c2cc(COc3ccc(OC)c4ccccc34)on2)C1` (centres undefined), for which the fluorescence response, % of control was 82.6% (inactive). In the case of `CN(C)CCN(C(=O)c1ccc(S(=O)(=O)N2CCc3ccccc32)cc1)c1nc2ccc(F)cc2s1` it was 196% (inactive); in that of `COc1ccc2cc(CN(CC3CCCO3)S(=O)(=O)c3ccc(C(C)=O)cc3)c(=O)[nH]c2c1` (centres undefined), 78.2% (inactive); in that of `O=C1c2cc(Cl)ccc2OC2(CCNCC2)C12CC(c1ccccc1)=NO2` (centres undefined), 107% (inactive). With `COc1ccc2c(-c3ccc(OCCN4CCCCC4)cc3)c(-c3ccccc3OC)sc2c1`, the fluorescence response, % of control is 102% (inactive).

Consider `Cn1cc(C(c2ccccn2)c2cn(C)c3ccccc23)c2ccccc21`, for which the fluorescence response, % of control was 97.1% (inactive).

In the case of `Cc1ccc2sc(N(CCCN(C)C)C(=O)c3ccc(Br)s3)nc2c1C`, the fluorescence response, % of control was 78.2% (inactive). In the case of `CC(C)OC(=O)c1ccc(COC(=O)c2cccc(-c3nnc(-c4ccccc4)o3)c2)cc1` it was 118% (inactive); in that of `COc1ccc2sc(-c3ccccc3OC)c(-c3ccc(OCCN4CCOCC4)cc3)c2c1`, 81.8% (inactive); in that of `CCN(CC)C(=O)CSc1nnc(-c2ccncc2)n1N`, 127% (inactive). Consider `CCSc1cc(N2CCOCC2)nc(-c2ccccc2)n1`, for which the fluorescence response, % of control is 89.7% (inactive). Turning to `CCOC(=O)c1cnc(SC)nc1Oc1cccc(NC(=O)c2ccc(Cl)cc2)c1`, the fluorescence response, % of control is 90.9% (inactive). As for `CC(C)n1cc(/C=N/NC(=O)COc2cccc3cccnc23)c2ccccc21`, the fluorescence response, % of control was 91.7% (inactive). In the case of `COc1ccc(C2CC(c3ccccc3C(F)(F)F)=NN2c2ccc(S(N)(=O)=O)cc2)cc1` (centres undefined) it was 106% (inactive); in that of `COc1cccc(C2CC(c3ccccc3)=NN2S(=O)(=O)c2ccc(C)cc2)c1OC` (centres undefined), 108% (inactive); in that of `COc1ccc(S(=O)(=O)N2CCCCC2)cc1NC(=O)c1ccc(CS(C)(=O)=O)cc1`, 99.1% (inactive).

As for `Cc1ccc(CN2C(=O)C(CC(C)C)Nc3ncnc(N4CCN(c5ccccc5)CC4)c32)cc1` (centres undefined), the fluorescence response, % of control was 102% (inactive). As to `COc1ccc(Cn2nnc3c(=O)[nH]c(C4CCN(S(=O)(=O)c5ccc(C)cc5)CC4)nc32)cc1`, the fluorescence response, % of control is 95.7% (inactive). Regarding `O=C(CSc1nnc(Cc2cccs2)n1Cc1ccco1)Nc1cccc(Cl)c1`, the fluorescence response, % of control is 128% (inactive). In the case of `CCCCn1c(=N)n(CC(O)COc2ccc(C)cc2)c2ccccc21` (centres undefined), the fluorescence response, % of control was 106% (inactive). Then `Cc1ccc2c(c1)[C@H]1[C@H](CO2)[C@H](c2ccccc2)[C@]2(C)C(=O)Nc3cc(F)c(F)cc3C(=O)N12`, with 90.5% (inactive); and `Cc1ccc(CN(Cc2cccnc2)C(=O)CN2C(=O)COc3ccccc32)o1`, with 96.1% (inactive). Then `CCCCCCCCCC[N+](C)(C)CC/C=C1/c2ccccc2Sc2ccc(Cl)cc21`, with 105% (inactive); and `O=C1C(Cc2ccccc2)Nc2ncnc(N3CCN(c4ccccc4)CC3)c2N1Cc1ccc(Cl)cc1` (centres undefined), with 97.1% (inactive); and `Cc1cccc(C)c1NC(=O)C1CC2CCC1C2` (centres undefined), with 102% (inactive). In the case of `CC1(C)Cc2c(sc(NC(=O)COc3ccc(Cl)cc3Cl)c2C(N)=O)C(C)(C)N1` it was 86% (inactive); in that of `COc1cc(OC)cc(-c2sc3ccc(OC)cc3c2-c2ccc(OCCN3CCOCC3)cc2)c1`, 111% (inactive). As for `COc1ccc(-c2nc3ccccc3c(=O)n2CCOc2cc(C)ccc2C)cc1`, the fluorescence response, % of control is 135% (inactive). In the case of `CSc1ccccc1NC(=O)c1cc(-c2ccc3c(c2)OCO3)on1` it was 101% (inactive); in that of `S=C(Nc1ccc(Cl)cc1Cl)N1CCCCC1`, 135% (inactive). Take `CCOc1cccc(-c2nc(C(N)=O)c3[nH]c(=O)n(-c4cccc(Cl)c4)c3n2)c1O`: the fluorescence response, % of control was 102% (inactive). In the case of `Nc1c(Cl)cc(C2=NCCn3nc4ccccc4c32)cc1Cl` it was 88.6% (inactive).
